Measurements taken from patent publication US7008957B2, “Bicyclic cyanoheterocycles, process for their preparation and their use as medicaments” (Sanofi-Aventis Deutschland GmbH, priority 2003, dated 2006).

Row | Structure (SMILES) | melting point [°C]
1 | N#C[C@@H]1CS[C@H]2C[C@](N)(Cc3ccccc3)C(=O)N12.O=C(O)C(F)(F)F | 209
2 | N#C[C@@H]1CS[C@@H]2C[C@@H](N)C(=O)N12.O=C(O)C(F)(F)F | 173.5
